Assay results: PMC3959874 (European journal of dermatology : EJD, 2013)

Columns and labels:
Adrenergic a1B = Adrenergic a1B (Rattus norvegicus, UniProt P15823); experiment: Radioligand binding assay; conditions: 10 μM; 25 °C, 60 min
[1] = tested on: Calcium Channel L-Type, Benzothiazepine; experiment: Radioligand binding assay; design: species or system rat; conditions: 10 μM; 4 °C, 180 min
[2] = molecular target: Serotonin (5-Hydroxytryptam ine) 5-HT2B (Homo sapiens, UniProt P41595); experiment: Radioligand binding assay; conditions: 10 μM; 37 °C, 60 min
Sigma al = Sigma al (Homo sapiens, UniProt Q99720); experiment: Radioligand binding assay; conditions: 10 μM; 37 °C, 240 min
Cannabinoid CB1 = Cannabinoid CB1 (Homo sapiens, UniProt P21554); experiment: Radioligand binding assay; conditions: 10 μM; 37 °C, 90 min
CYP450, 2C19 = CYP450, 2C19 (Homo sapiens, UniProt P33261); experiment: Cytochrome P450 enzyme assay; assay type: in vitro ADME; conditions: 10 μM; 37 °C, 45 min
Muscarinic M3 = Muscarinic M3 (Homo sapiens, UniProt P20309); assay type: binding; conditions: 10 μM; 25 °C, 120 min
human whole blood = experiment: Cytokine induction in human whole blood assay; assay type: cell-based; conditions: three donors (figures 1D–F)
Adrenergic a1D = Adrenergic a1D (Homo sapiens, UniProt P25100); experiment: Radioligand binding assay; conditions: 10 μM; 25 °C, 60 min
[3] = tested on: Sodium Channel, Site 2 289593; experiment: Radioligand binding assay; design: species or system rat; conditions: 10 μM; 37 °C, 60 min
Rolipram = experiment: Radioligand binding assay; design: species or system rat; conditions: 10 μM; 4 °C, 60 min
Dopamine D3 = Dopamine D3 (Homo sapiens, UniProt P35462); experiment: Radioligand binding assay; conditions: 10 μM; 37 °C, 120 min
[4] = tested on: primary bone marrow derived dendritic cells (BMDC); experiment: Cytokine induction; assay type: cell-based, mouse; conditions: graded doses overnight, ELISA (figures 1B, C)
Opiate 51 (OP1, DOP) = Opiate 51 (OP1, DOP) (Homo sapiens, UniProt P41143); experiment: Radioligand binding assay; conditions: 10 μM; 25 °C, 60 min
Transporter, GABA = Transporter, GABA (Rattus norvegicus, UniProt P23978); experiment: Radioligand binding assay; conditions: 10 μM; 25 °C, 20 min
Histamine H3 = Histamine H3 (Homo sapiens, UniProt Q9Y5N1); experiment: Radioligand binding assay; conditions: 10 μM; 25 °C, 120 min
Opiate K (OP2, KOP) = Opiate K (OP2, KOP) (Homo sapiens, UniProt P41145); experiment: Radioligand binding assay; conditions: 10 μM; 25 °C, 60 min
Adenosine A2A = Adenosine A2A (Homo sapiens, UniProt P29274); experiment: Radioligand binding assay; conditions: 10 μM; 25 °C, 90 min
Muscarinic M1 = Muscarinic M1 (Homo sapiens, UniProt P11229); assay type: binding; conditions: 10 μM; 25 °C, 120 min
[5] = molecular target: Serotonin (5-Hydroxytryptam ine) 5-HT1A (Homo sapiens, UniProt P08908); experiment: Radioligand binding assay; conditions: 10 μM; 25 °C, 60 min
Neuropeptide Y Y2 = Neuropeptide Y Y2 (Homo sapiens, UniProt P49146); experiment: Radioligand binding assay; conditions: 10 μM; 37 °C, 120 min
[6] = molecular target: Epidermal Growth Factor (EG F) (Homo sapiens, UniProt P00533); experiment: Radioligand binding assay; conditions: 10 μM; 25 °C, 60 min
[7] = tested on: Calcium Channel L-Type, Dihydropyridine; experiment: Radioligand binding assay; design: species or system rat; conditions: 10 μM; 25 °C, 90 min
Prostanoid EP4 = Prostanoid EP4 (Homo sapiens, UniProt P35408); experiment: Radioligand binding assay; conditions: 10 μM; 25 °C, 120 min
Dopamine D24 = Dopamine D24 (Homo sapiens, UniProt P14416); experiment: Radioligand binding assay; conditions: 10 μM; 37 °C, 120 min
Glutamate, Kainate = experiment: Radioligand binding assay; design: species or system rat; conditions: 10 μM; 4 °C, 60 min
[8] = Serum drug concentration after topical skin application; conditions: mice, TMX-202 from TMX-202 gel, IMQ from Aldara
human PBMC = experiment: IFN-γ secretion by stimulated PBMC; assay type: cell-based
Bradykinin B2 = Bradykinin B2 (Homo sapiens, UniProt P30411); experiment: Radioligand binding assay; conditions: 10 μM; 25 °C, 60 min

Sequence of Adenosine A2A (P29274 whole entry): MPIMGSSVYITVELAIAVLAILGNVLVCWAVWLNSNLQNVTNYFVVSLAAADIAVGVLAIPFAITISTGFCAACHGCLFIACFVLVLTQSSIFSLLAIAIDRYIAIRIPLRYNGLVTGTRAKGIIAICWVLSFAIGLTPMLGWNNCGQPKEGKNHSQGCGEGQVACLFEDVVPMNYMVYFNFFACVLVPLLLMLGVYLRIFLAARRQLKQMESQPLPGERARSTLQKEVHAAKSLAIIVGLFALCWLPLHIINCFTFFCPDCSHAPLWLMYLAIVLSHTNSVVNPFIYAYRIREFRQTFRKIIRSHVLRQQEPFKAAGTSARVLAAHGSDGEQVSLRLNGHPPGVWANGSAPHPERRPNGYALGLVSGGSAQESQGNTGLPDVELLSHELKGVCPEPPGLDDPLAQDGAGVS
Sequence of Neuropeptide Y Y2 (P49146 whole entry): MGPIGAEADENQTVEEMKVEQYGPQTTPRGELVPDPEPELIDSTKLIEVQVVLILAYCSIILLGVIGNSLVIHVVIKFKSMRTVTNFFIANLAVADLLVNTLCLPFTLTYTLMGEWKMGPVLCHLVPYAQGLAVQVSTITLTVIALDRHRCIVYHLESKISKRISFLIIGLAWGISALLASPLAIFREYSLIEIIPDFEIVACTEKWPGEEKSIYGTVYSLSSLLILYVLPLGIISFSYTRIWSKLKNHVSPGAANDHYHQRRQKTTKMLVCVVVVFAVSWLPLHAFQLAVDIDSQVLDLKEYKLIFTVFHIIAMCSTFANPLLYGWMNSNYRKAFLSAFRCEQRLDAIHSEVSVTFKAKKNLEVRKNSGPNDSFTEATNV
Sequence of Dopamine D3 (P35462 whole entry): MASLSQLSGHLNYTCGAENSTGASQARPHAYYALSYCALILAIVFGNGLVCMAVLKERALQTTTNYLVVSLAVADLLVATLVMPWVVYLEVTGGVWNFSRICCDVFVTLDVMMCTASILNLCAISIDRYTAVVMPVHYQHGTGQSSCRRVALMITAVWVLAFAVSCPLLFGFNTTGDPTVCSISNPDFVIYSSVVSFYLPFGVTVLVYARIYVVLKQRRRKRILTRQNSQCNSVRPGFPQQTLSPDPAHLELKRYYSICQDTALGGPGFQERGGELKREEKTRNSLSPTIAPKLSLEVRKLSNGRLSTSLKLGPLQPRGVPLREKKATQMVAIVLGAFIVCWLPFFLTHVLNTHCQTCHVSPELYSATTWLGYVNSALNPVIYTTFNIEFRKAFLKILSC
Sequence of Muscarinic M1 (P11229 whole entry): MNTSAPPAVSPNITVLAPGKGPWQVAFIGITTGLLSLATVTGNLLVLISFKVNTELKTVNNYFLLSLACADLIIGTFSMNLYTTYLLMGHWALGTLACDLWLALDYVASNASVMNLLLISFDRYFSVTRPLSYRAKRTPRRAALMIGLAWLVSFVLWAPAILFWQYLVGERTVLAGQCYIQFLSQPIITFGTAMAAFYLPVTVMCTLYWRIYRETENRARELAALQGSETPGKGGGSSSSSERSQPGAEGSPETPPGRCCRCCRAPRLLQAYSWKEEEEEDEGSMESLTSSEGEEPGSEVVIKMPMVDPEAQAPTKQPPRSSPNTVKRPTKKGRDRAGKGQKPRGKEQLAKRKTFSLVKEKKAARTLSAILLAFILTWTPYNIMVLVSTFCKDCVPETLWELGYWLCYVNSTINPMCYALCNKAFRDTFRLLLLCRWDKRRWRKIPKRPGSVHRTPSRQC
Sequence of Serotonin (5-Hydroxytryptam ine) 5-HT1A (P08908 whole entry): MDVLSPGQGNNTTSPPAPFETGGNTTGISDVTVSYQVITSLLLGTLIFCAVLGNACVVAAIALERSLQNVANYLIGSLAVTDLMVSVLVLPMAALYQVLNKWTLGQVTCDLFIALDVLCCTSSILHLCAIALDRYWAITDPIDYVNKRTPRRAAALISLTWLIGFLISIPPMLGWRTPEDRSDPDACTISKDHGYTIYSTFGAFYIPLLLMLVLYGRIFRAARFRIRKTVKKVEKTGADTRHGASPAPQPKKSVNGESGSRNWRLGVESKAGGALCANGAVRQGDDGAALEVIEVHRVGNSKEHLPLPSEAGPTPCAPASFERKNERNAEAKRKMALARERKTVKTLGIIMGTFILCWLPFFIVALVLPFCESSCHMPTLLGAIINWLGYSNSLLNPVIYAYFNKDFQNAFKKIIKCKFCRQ
Sequence of Opiate K (OP2, KOP) (P41145 whole entry): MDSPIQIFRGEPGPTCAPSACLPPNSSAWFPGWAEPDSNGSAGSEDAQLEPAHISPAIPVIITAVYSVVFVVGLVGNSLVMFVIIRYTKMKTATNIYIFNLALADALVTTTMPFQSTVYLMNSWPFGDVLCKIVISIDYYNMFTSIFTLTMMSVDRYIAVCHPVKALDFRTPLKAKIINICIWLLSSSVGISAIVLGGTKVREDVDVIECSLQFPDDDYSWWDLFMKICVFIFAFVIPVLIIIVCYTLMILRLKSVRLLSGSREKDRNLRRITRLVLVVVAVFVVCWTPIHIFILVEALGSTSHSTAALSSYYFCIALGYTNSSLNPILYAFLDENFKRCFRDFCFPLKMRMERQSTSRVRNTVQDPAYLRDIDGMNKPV
Sequence of Epidermal Growth Factor (EG F) (P00533 25-1210): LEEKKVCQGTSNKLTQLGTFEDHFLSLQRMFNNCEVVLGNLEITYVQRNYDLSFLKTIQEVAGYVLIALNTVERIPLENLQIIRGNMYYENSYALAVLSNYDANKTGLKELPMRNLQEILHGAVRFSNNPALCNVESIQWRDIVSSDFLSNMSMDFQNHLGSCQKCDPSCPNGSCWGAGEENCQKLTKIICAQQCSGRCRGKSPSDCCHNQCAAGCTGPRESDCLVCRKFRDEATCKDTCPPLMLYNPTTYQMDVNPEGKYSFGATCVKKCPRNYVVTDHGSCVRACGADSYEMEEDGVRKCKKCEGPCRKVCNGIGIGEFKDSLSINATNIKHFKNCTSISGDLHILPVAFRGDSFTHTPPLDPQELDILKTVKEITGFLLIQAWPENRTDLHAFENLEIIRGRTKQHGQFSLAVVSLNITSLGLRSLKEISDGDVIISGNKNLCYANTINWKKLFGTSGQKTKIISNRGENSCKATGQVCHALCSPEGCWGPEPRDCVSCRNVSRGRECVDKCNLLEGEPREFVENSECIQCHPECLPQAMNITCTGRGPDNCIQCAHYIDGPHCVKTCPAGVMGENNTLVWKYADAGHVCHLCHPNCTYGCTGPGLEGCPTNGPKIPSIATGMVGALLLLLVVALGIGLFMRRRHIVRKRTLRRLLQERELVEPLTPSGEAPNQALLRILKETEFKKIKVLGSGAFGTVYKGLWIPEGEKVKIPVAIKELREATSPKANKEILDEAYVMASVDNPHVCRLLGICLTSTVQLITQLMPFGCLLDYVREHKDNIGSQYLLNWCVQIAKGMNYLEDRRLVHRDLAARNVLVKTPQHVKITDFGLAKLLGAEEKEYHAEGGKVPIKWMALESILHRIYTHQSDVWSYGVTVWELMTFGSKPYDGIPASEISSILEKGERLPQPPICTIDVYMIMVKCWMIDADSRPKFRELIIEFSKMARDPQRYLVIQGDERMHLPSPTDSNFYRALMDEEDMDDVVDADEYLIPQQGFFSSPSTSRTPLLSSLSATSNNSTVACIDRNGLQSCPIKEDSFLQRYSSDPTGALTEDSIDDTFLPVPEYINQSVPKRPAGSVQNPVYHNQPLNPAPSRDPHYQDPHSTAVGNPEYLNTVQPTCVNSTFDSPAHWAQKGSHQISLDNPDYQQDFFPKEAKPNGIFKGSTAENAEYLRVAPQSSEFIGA
Sequence of Adrenergic a1B (P15823 whole entry): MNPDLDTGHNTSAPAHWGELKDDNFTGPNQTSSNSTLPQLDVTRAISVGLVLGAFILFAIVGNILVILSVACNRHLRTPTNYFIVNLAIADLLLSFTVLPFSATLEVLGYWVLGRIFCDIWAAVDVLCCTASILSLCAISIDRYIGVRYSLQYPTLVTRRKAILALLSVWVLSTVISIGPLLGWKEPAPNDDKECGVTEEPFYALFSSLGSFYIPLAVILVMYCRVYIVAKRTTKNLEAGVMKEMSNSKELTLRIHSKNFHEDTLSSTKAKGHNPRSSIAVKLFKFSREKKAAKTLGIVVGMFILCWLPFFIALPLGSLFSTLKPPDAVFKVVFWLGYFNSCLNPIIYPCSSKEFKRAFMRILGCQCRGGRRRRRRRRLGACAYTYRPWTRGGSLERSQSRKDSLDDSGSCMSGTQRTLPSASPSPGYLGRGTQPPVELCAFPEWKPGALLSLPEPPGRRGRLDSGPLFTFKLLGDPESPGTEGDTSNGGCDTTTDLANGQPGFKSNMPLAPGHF
Sequence of Serotonin (5-Hydroxytryptam ine) 5-HT2B (P41595 whole entry): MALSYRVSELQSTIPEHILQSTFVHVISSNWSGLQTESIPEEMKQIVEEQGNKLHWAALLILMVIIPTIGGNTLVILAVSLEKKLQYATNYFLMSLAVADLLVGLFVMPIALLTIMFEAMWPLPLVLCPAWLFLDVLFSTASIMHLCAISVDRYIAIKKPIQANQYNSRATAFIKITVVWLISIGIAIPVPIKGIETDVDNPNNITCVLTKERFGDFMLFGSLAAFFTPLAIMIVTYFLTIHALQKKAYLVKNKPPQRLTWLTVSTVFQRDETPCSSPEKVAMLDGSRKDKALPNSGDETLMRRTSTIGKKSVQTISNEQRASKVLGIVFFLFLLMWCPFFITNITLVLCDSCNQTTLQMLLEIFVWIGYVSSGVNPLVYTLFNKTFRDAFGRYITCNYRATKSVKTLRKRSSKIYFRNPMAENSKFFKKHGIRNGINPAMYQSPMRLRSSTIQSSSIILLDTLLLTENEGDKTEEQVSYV
Sequence of Sigma al (Q99720 whole entry): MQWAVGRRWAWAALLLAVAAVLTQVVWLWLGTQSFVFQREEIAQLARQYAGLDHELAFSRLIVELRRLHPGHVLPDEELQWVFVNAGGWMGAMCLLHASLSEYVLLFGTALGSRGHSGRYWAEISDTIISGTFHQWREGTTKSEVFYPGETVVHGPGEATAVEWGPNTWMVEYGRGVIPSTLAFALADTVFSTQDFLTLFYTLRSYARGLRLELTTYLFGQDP

CCCCCCCCCCCC(=O)OC[C@@H](COP(=O)(O)OCCNC(=O)c1ccc(Cn2c(=O)[nH]c3c(N)nc(OCCOC)nc32)cc1)OC(=O)CCCCCCCCCCC [TMX-202]
Percent inhibition of specific radioligand binding (Adrenergic a1B): 0%
Percent inhibition of specific radioligand binding [1]: 1%
Percent inhibition of specific radioligand binding [2]: 1%
Percent inhibition of specific radioligand binding (Sigma al): −5%
Percent inhibition of specific radioligand binding (Cannabinoid CB1): −14%
Percent inhibition of enzyme activity (CYP450, 2C19): 1%
Percent inhibition of specific radioligand binding (Muscarinic M3): −6%
Potency of hIL-12, hIL-6 and hIFN-α induction compared with IMQ (human whole blood): higher potency
Percent inhibition of specific radioligand binding (Adrenergic a1D): 6%
Percent inhibition of specific radioligand binding [3]: 15%
Percent inhibition of specific radioligand binding (Rolipram): 21%
Percent inhibition of specific radioligand binding (Dopamine D3): 15%
Potency of mIL-6 and mIL-1β induction compared with IMQ [4]: more potent cytokine inducer
Percent inhibition of specific radioligand binding (Opiate 51 (OP1, DOP)): 5%
Percent inhibition of specific radioligand binding (Transporter, GABA): 1%
Percent inhibition of specific radioligand binding (Histamine H3): −14%
Percent inhibition of specific radioligand binding (Opiate K (OP2, KOP)): −9%
Percent inhibition of specific radioligand binding (Adenosine A2A): −8%
Percent inhibition of specific radioligand binding (Muscarinic M1): 0%
Percent inhibition of specific radioligand binding [5]: −7%
Percent inhibition of specific radioligand binding (Neuropeptide Y Y2): 4%
Percent inhibition of specific radioligand binding [6]: 6%
Percent inhibition of specific radioligand binding [7]: 10%
Percent inhibition of specific radioligand binding (Prostanoid EP4): 7%
Percent inhibition of specific radioligand binding (Dopamine D24): 25%
Percent inhibition of specific radioligand binding (Glutamate, Kainate): 1%
Serum level of the compound one hour after the application [8]: 2.6 ± 0.6 pg/mL
IFN-γ secretion compared with vehicle treated controls (human PBMC; PBMC from five independent donors (figure 6C)): significantly higher than vehicle treated controls
Average IFN-γ levels in the TMX-202+CM (human PBMC; human PBMC 10^6/mL, 1 μM TMX-202, 24 hrs, three donors): 204 ± 113 pg/mL
Percent inhibition of specific radioligand binding (Bradykinin B2): −2%
